Measurements published in PubChem BioAssay (NCI).
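How tested: cells in 96-well plates exposed to compound for 48 hours at five concentrations. TGI: total growth inhibition.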

Tested on: HT29 colon
Assay: growth of human tumour cells (NCI), 48 h

| Structure (SMILES) | TGI [µM] |
| --- | --- |
| O=C1CCCCC1CN1CCCCC1 (centres undefined) | > 100 |
| CCOC(=O)Nc1sc2c(c1C#N)CCCC2 | > 100 |
| O=C1CN(c2cccc(Cl)c2)C(=O)CN1CCN1CC(=O)N(c2cccc(Cl)c2)CC1=O | > 100 |
| Nc1nc2c(c(-c3cccc(Cl)c3)n1)COC/C2=C\c1cccc(Cl)c1 | > 100 |
| O=C(/C=C/c1ccc2c(c1)OCO2)c1ccc(O)cc1 | 29.8 |
| c1ccc2c(c1)Cn1c-2nc2ccccc21 | > 100 |
| Oc1ccc2c(c1)c1c(n2CCN2CCOCC2)-c2ccccc2CC1 | 45.8 |

Tested on: DU-145 prostate
Assay: growth of human tumour cells (NCI), 48 h

| Structure (SMILES) | TGI [µM] |
| --- | --- |
| O=C1CCCCC1CN1CCCCC1 (centres undefined) | > 100 |
| CCOC(=O)Nc1sc2c(c1C#N)CCCC2 | > 100 |
| O=C1CN(c2cccc(Cl)c2)C(=O)CN1CCN1CC(=O)N(c2cccc(Cl)c2)CC1=O | > 100 |
| Nc1nc2c(c(-c3cccc(Cl)c3)n1)COC/C2=C\c1cccc(Cl)c1 | > 100 |
| O=C(/C=C/c1ccc2c(c1)OCO2)c1ccc(O)cc1 | 30.1 |
| c1ccc2c(c1)Cn1c-2nc2ccccc21 | > 100 |

Tested on: BT-549 breast
Assay: growth of human tumour cells (NCI), 48 h

| Structure (SMILES) | TGI [µM] |
| --- | --- |
| O=C1CCCCC1CN1CCCCC1 (centres undefined) | > 100 |
| CCOC(=O)Nc1sc2c(c1C#N)CCCC2 | > 100 |
| O=C1CN(c2cccc(Cl)c2)C(=O)CN1CCN1CC(=O)N(c2cccc(Cl)c2)CC1=O | > 100 |
| Nc1nc2c(c(-c3cccc(Cl)c3)n1)COC/C2=C\c1cccc(Cl)c1 | > 100 |
| O=C(/C=C/c1ccc2c(c1)OCO2)c1ccc(O)cc1 | 27.4 |
| c1ccc2c(c1)Cn1c-2nc2ccccc21 | > 100 |
| Oc1ccc2c(c1)c1c(n2CCN2CCOCC2)-c2ccccc2CC1 | > 100 |

Tested on: COLO 205 colon
Assay: growth of human tumour cells (NCI), 48 h

| Structure (SMILES) | TGI [µM] |
| --- | --- |
| O=C1CCCCC1CN1CCCCC1 (centres undefined) | > 100 |
| CCOC(=O)Nc1sc2c(c1C#N)CCCC2 | > 100 |
| O=C1CN(c2cccc(Cl)c2)C(=O)CN1CCN1CC(=O)N(c2cccc(Cl)c2)CC1=O | > 100 |
| Nc1nc2c(c(-c3cccc(Cl)c3)n1)COC/C2=C\c1cccc(Cl)c1 | > 100 |
| O=C(/C=C/c1ccc2c(c1)OCO2)c1ccc(O)cc1 | 31.3 |
| c1ccc2c(c1)Cn1c-2nc2ccccc21 | > 100 |

Tested on: TK-10 renal
Assay: growth of human tumour cells (NCI), 48 h

| Structure (SMILES) | TGI [µM] |
| --- | --- |
| O=C1CCCCC1CN1CCCCC1 (centres undefined) | > 100 |
| CCOC(=O)Nc1sc2c(c1C#N)CCCC2 | > 100 |
| O=C1CN(c2cccc(Cl)c2)C(=O)CN1CCN1CC(=O)N(c2cccc(Cl)c2)CC1=O | > 100 |
| Nc1nc2c(c(-c3cccc(Cl)c3)n1)COC/C2=C\c1cccc(Cl)c1 | > 100 |
| O=C(/C=C/c1ccc2c(c1)OCO2)c1ccc(O)cc1 | 33.1 |
| c1ccc2c(c1)Cn1c-2nc2ccccc21 | > 100 |
| Oc1ccc2c(c1)c1c(n2CCN2CCOCC2)-c2ccccc2CC1 | 77.9 |

Tested on: IGROV1 ovarian
Assay: growth of human tumour cells (NCI), 48 h

| Structure (SMILES) | TGI [µM] |
| --- | --- |
| O=C1CCCCC1CN1CCCCC1 (centres undefined) | > 100 |
| CCOC(=O)Nc1sc2c(c1C#N)CCCC2 | > 100 |
| O=C1CN(c2cccc(Cl)c2)C(=O)CN1CCN1CC(=O)N(c2cccc(Cl)c2)CC1=O | > 100 |
| Nc1nc2c(c(-c3cccc(Cl)c3)n1)COC/C2=C\c1cccc(Cl)c1 | > 100 |
| O=C(/C=C/c1ccc2c(c1)OCO2)c1ccc(O)cc1 | 30.2 |
| c1ccc2c(c1)Cn1c-2nc2ccccc21 | > 100 |
| Oc1ccc2c(c1)c1c(n2CCN2CCOCC2)-c2ccccc2CC1 | 57.6 |

Tested on: HCT-15 colon
Assay: growth of human tumour cells (NCI), 48 h

| Structure (SMILES) | TGI [µM] |
| --- | --- |
| O=C1CCCCC1CN1CCCCC1 (centres undefined) | > 100 |
| CCOC(=O)Nc1sc2c(c1C#N)CCCC2 | > 100 |
| O=C1CN(c2cccc(Cl)c2)C(=O)CN1CCN1CC(=O)N(c2cccc(Cl)c2)CC1=O | > 100 |
| Nc1nc2c(c(-c3cccc(Cl)c3)n1)COC/C2=C\c1cccc(Cl)c1 | > 100 |
| O=C(/C=C/c1ccc2c(c1)OCO2)c1ccc(O)cc1 | 27.5 |
| c1ccc2c(c1)Cn1c-2nc2ccccc21 | > 100 |
| Oc1ccc2c(c1)c1c(n2CCN2CCOCC2)-c2ccccc2CC1 | 66.1 |

Tested on: SNB-19 CNS
Assay: growth of human tumour cells (NCI), 48 h

| Structure (SMILES) | TGI [µM] |
| --- | --- |
| O=C1CCCCC1CN1CCCCC1 (centres undefined) | > 100 |
| CCOC(=O)Nc1sc2c(c1C#N)CCCC2 | > 100 |
| O=C1CN(c2cccc(Cl)c2)C(=O)CN1CCN1CC(=O)N(c2cccc(Cl)c2)CC1=O | > 100 |
| Nc1nc2c(c(-c3cccc(Cl)c3)n1)COC/C2=C\c1cccc(Cl)c1 | > 100 |
| O=C(/C=C/c1ccc2c(c1)OCO2)c1ccc(O)cc1 | 30.5 |
| c1ccc2c(c1)Cn1c-2nc2ccccc21 | > 100 |
| Oc1ccc2c(c1)c1c(n2CCN2CCOCC2)-c2ccccc2CC1 | > 100 |

Tested on: PC-3 prostate
Assay: growth of human tumour cells (NCI), 48 h

| Structure (SMILES) | TGI [µM] |
| --- | --- |
| O=C1CCCCC1CN1CCCCC1 (centres undefined) | > 100 |
| CCOC(=O)Nc1sc2c(c1C#N)CCCC2 | > 100 |
| O=C1CN(c2cccc(Cl)c2)C(=O)CN1CCN1CC(=O)N(c2cccc(Cl)c2)CC1=O | > 100 |
| Nc1nc2c(c(-c3cccc(Cl)c3)n1)COC/C2=C\c1cccc(Cl)c1 | > 100 |
| O=C(/C=C/c1ccc2c(c1)OCO2)c1ccc(O)cc1 | 29.4 |
| c1ccc2c(c1)Cn1c-2nc2ccccc21 | > 100 |
| Oc1ccc2c(c1)c1c(n2CCN2CCOCC2)-c2ccccc2CC1 | > 100 |

Tested on: MDA-N
Assay: growth of human tumour cells (NCI), 48 h

| Structure (SMILES) | TGI [µM] |
| --- | --- |
| O=C1CCCCC1CN1CCCCC1 (centres undefined) | > 100 |
| CCOC(=O)Nc1sc2c(c1C#N)CCCC2 | > 100 |
| O=C1CN(c2cccc(Cl)c2)C(=O)CN1CCN1CC(=O)N(c2cccc(Cl)c2)CC1=O | > 100 |
| Nc1nc2c(c(-c3cccc(Cl)c3)n1)COC/C2=C\c1cccc(Cl)c1 | > 100 |
| O=C(/C=C/c1ccc2c(c1)OCO2)c1ccc(O)cc1 | 22.9 |
| c1ccc2c(c1)Cn1c-2nc2ccccc21 | > 100 |
| Oc1ccc2c(c1)c1c(n2CCN2CCOCC2)-c2ccccc2CC1 | > 100 |

Tested on: HL-60(TB) leukemia
Assay: growth of human tumour cells (NCI), 48 h

| Structure (SMILES) | TGI [µM] |
| --- | --- |
| O=C1CCCCC1CN1CCCCC1 (centres undefined) | > 100 |
| CCOC(=O)Nc1sc2c(c1C#N)CCCC2 | > 100 |
| O=C1CN(c2cccc(Cl)c2)C(=O)CN1CCN1CC(=O)N(c2cccc(Cl)c2)CC1=O | > 100 |
| Nc1nc2c(c(-c3cccc(Cl)c3)n1)COC/C2=C\c1cccc(Cl)c1 | > 100 |
| O=C(/C=C/c1ccc2c(c1)OCO2)c1ccc(O)cc1 | 28.7 |
| c1ccc2c(c1)Cn1c-2nc2ccccc21 | > 100 |
| Oc1ccc2c(c1)c1c(n2CCN2CCOCC2)-c2ccccc2CC1 | > 100 |

Tested on: RXF 393 renal
Assay: growth of human tumour cells (NCI), 48 h

| Structure (SMILES) | TGI [µM] |
| --- | --- |
| O=C1CCCCC1CN1CCCCC1 (centres undefined) | > 100 |
| CCOC(=O)Nc1sc2c(c1C#N)CCCC2 | > 100 |
| O=C1CN(c2cccc(Cl)c2)C(=O)CN1CCN1CC(=O)N(c2cccc(Cl)c2)CC1=O | > 100 |
| Nc1nc2c(c(-c3cccc(Cl)c3)n1)COC/C2=C\c1cccc(Cl)c1 | > 100 |
| O=C(/C=C/c1ccc2c(c1)OCO2)c1ccc(O)cc1 | 29.6 |
| c1ccc2c(c1)Cn1c-2nc2ccccc21 | > 100 |
| Oc1ccc2c(c1)c1c(n2CCN2CCOCC2)-c2ccccc2CC1 | 75.7 |

Tested on: OVCAR-8 ovarian
Assay: growth of human tumour cells (NCI), 48 h

| Structure (SMILES) | TGI [µM] |
| --- | --- |
| O=C1CCCCC1CN1CCCCC1 (centres undefined) | > 100 |
| O=C1CN(c2cccc(Cl)c2)C(=O)CN1CCN1CC(=O)N(c2cccc(Cl)c2)CC1=O | > 100 |
| Nc1nc2c(c(-c3cccc(Cl)c3)n1)COC/C2=C\c1cccc(Cl)c1 | > 100 |
| O=C(/C=C/c1ccc2c(c1)OCO2)c1ccc(O)cc1 | 3.11 |
| c1ccc2c(c1)Cn1c-2nc2ccccc21 | > 100 |
| Oc1ccc2c(c1)c1c(n2CCN2CCOCC2)-c2ccccc2CC1 | > 100 |

Tested on: T-47D breast
Assay: growth of human tumour cells (NCI), 48 h

| Structure (SMILES) | TGI [µM] |
| --- | --- |
| Nc1nc2c(c(-c3cccc(Cl)c3)n1)COC/C2=C\c1cccc(Cl)c1 | > 100 |
| c1ccc2c(c1)Cn1c-2nc2ccccc21 | > 100 |

Tested on: RPMI-8226 leukemia
Assay: growth of human tumour cells (NCI), 48 h

| Structure (SMILES) | TGI [µM] |
| --- | --- |
| CCOC(=O)Nc1sc2c(c1C#N)CCCC2 | > 100 |
| O=C1CN(c2cccc(Cl)c2)C(=O)CN1CCN1CC(=O)N(c2cccc(Cl)c2)CC1=O | > 100 |
| Nc1nc2c(c(-c3cccc(Cl)c3)n1)COC/C2=C\c1cccc(Cl)c1 | > 100 |
| c1ccc2c(c1)Cn1c-2nc2ccccc21 | > 100 |
